Consider 3 molecules from publication PMC5131266 (Scientific Reports, 2016).

The subject of one test is MPER-PDGFR. Briefly: Cell-lysate ELISA, MPER-PDGFR. Type of test: binding, HIV-1. The following applies: 293T cell lysates, 20 nM IgG or Fab, normalized to 20 nM 17/9 IgG. In general terms: In an ELISA, binding on a coated surface is turned into a signal by an enzyme label.
In the next test the test system is MPER-TM1. Briefly: Cell-lysate ELISA, MPER-TM1. Type of test: binding, HIV-1. As to conditions: 293T cell lysates, 20 nM IgG or Fab, normalized to 20 nM 17/9 IgG.
In test [1] the test system is simian immunodeficiency virus-HIV chimera. As to conditions: rhesus macaques; cited from earlier work. From the text: (§1) The 10E8 antibody achieves potent and broad HIV-1 neutralization by targeting the membrane-proximal external region of gp41 (MPER)[1][2]. […] The exceptionally high degree of conservation of the MPER sequence[4][5] justifies immunotherapeutic approaches based on the 10E8 antibody.

Test [2] has as its system SIVs that infect chimpanzees and gorillas. The following applies: cited from earlier work.
From the text: as §1

In a further test the test system is HIV-1. As to conditions: cited from earlier work.
Test [3] deals with HIV-1 Env of JRCSF on pseudovirus particles (HIV-1 group M subtype B, isolate JRCSF, UniProt P20871). Nature of the test: far-Western, overlay or dot blot; dot blot: decreasing amounts of PsV spotted on nitrocellulose, probed with Fab (0.2 ug/ml) in 5% milk in PBS, 1 h, room temperature. As to conditions: one partner purified.

As to “10E8 IgG: broadly neutralizing anti-HIV-1 gp41 MPER antibody 10E8, IgG”, the “binding to MPER-PDGFR” value in the test on MPER-PDGFR was “poor ligand”. The “binding to MPER-TM1” value in the test on MPER-TM1 was “bind tightly”. Also, the protection against infection entry in test [1] is given as “complete protection”. For the same molecule, the neutralization potency result in test [2] is given as “nanomolar potency”. Also, the “mean IC50” value in the test with HIV-1 is “below 1 μg/mL”.
On to “10E8 WT Fab: recombinant unmodified Fab of anti-HIV-1 gp41 MPER antibody 10E8”, for which, in the test on MPER-PDGFR, the “binding to MPER-PDGFR” value is on record as “poor ligand”. For the same molecule, the “binding to MPER-TM1” value in the test with MPER-TM1 is recorded as “comparable degree of binding”.

B1: 10E8 Fab (Fab, V domains shown)
VH: EVQLVESGGGLVKPGGSLRLSCSASGFDFDNAWMTWVRQPPGKGLEWVGRITGPGEGWSVDYAAPVEGRFTISRLNSINFLYLEMNNLRMEDSGLYFCARTGKYYDFWSGYPPGEEYFQDWGRGTLVTVSS
VL: SYELTQETGVSVALGRTVTITCRGDSLRSHYASWYQKKPGQAPILLFYGKNNRPSGVPDRFSGSASGNRASLTISGAQAEDDAEYYCSSRDKSGSRLSVFGGGTKLTVL
notes: also called Fab 10E8; WT
Consider B1, for which, in test [3], the binding result is “binds”.
